The source of these data is patent publication US20210261528A1, “SALTS OF (S)-(5-CYCLOBUTOXY-2-METHYL-6-(1-(PIPERIDIN-4-YL)-1H-PYRAZOL-4-YL)-3,4-DIHYDROQUINOLIN-1(2H)-YL)(CYCLOPROPYL)METHANONE AND SOLID FORMS THEREOF” (FORMA Therapeutics, Inc., priority 2018, published 2021).

Type in all cases: physicochemical
The nature of data set [1]: Aqueous solubility estimation of Compound 2 Form G, Form O and Form I at RT (Example 13, Table 27). Particulars: for Observation Initial / Observation 2 hrs: about 3 mg in 50 μL water; for Observation 2 hrs: stirred 2 hrs. The protocol:
Aqueous solubility tests at RT were conducted on the two potential anhydrates, Form G and O, and the hydrated Form I. About 3 mg of each form was weighed into a 2-mL vial. […] of water was added and stirred thoroughly at RT with the speed of 800 RPM.

A short description of data set [2]: Critical aw between Compound 2 Form G and Form I, slurry turnover in H2O/IPAc (Example 12, Table 26). As to conditions: for Final Form: 24 hrs. The protocol:
To investigate the critical aw between hydrated Form I and the stable anhydrate, Form G, slurry turnover of Form I and Form G was conducted in a co-solvent system (H2O/IPAc) with different aw at RT and 50° C. Similar mass of Form G and Form I were added into a 2-mL vial, followed by adding solvent and stirring at RT or 50° C. for 24 hrs. The solids obtained were analyzed by XRPD to confirm the form change.

Data set [3] in a line: Hygroscopicity evaluation by Dynamic Vapor Sorption (DVS) with XRPD of the solids after DVS. As to conditions: for solid form after the DVS test: XRPD of solids after DVS; for hygroscopicity (DVS): absorption up to 80% RH; for hygroscopicity (DVS) / behaviour at high humidity (DVS): 25° C.; for behaviour at high humidity (DVS): >60% RH. The protocol: Dynamic Vapor Sorption (DVS) was obtained using a Surface Measurement Systems (SMS) DVS Intrinsic. The relative humidity at 25° C. were calibrated against deliquescence point of LiCl, Mg (NO3)2 and KCl.

A short description of data set [4]: Slurry competition between Compound 2 Form G and Form O for stability evaluation (Example 10, Table 24). As to conditions: 24 hours. The protocol: The slurry competition experiments between the two anhydrates, Form G and Form O, were performed in two solvents, IPAc and MTBE, at RT and 50° C. for stability evaluation. Form O was dissolved in IPAc and MTBE respectively to get saturated solutions. Then, similar masses of Form G and Form O were added into a 2-mL vial, upon which the corresponding saturated solution was added to give the slurry, which was stirred at RT or 50° C. for 24 hours. The solids collected were analyzed by XRPD to confirm the form change.

A short description of data set [5]: Chemical stability by HPLC-UV at 275 nm and 254 nm (Table 9). How it is done:
High Pressure Liquid Chromatography (HPLC) data were obtained according to Tables 6 or 7, below:
A standard stock was dissolved with diluent in a volumetric flask (e.g., 25 mg in 25 mL). This stock was vortexed and sonicated 10 sec to dissolve, and then diluted 1:10, 1:4, and 1:2 either in volumetric flasks or in HPLC vials to generate a standard curve. […] Where appropriate, a blank was created to accurately replicate the matrix of the analytical sample, and peaks appearing in the blank were identified before integration and quantification using Chemstation software.
The chemical stability of Succinate Form A was determined using HPLC-UV at 275 nm and 254 nm.
The chemical stability of Form G was determined using HPLC-UV at 275 nm and 254 nm.

A short description of data set [6]: Slurry turnover of Compound 2 Form B, Form I and Form G (Example 11, Table 25). As to conditions: 24 hours. How it is done: To further study the form identity of Form B and Form I, slurry turnover experiments were performed in two solvents with the addition of Form G. Form B was dissolved in IPAc and MTBE respectively to get saturated solutions. Similar mass of Form B, G and I were weighed into a 2-mL vial, upon which the corresponding saturated solution was added to give the slurry, which was stirred at RT or 50° C. After slurry for 24 hours, the solids obtained were analyzed by XRPD.

Where “and” joins values, the source holds several entries; their conditions need not be identical. Equal values may be shown once. Entries after “also recorded” stand apart in the source; their conditions may differ.

`C[C@H]1CCc2c(ccc(-c3cnn(C4CCNCC4)c3)c2OC2CCC2)N1C(=O)C1CC1.O=C(O)CCC(=O)O` [Form I, (S)-(5-cyclobutoxy-2-methyl-6-(1-(piperidin-4-yl)-1H-pyrazol-4-yl)-3,4-dihydroquinolin-1(2H)-yl)(cyclopropyl)methanone succinate]: in data set [1], the “Observation Initial” value is “Little solid” and the “Observation 2 hrs” value was “Clear”. In addition, in data set [2] (different aw), the “stability under ambient conditions compared to Form G” value is given as “did not appear to have any stability”. Besides, in data set [3] (succinate), the “solid form after the DVS test” value is given as “amorphous” and the “hygroscopicity (DVS)” value is recorded as “high hygroscopicity”. Also, in data set [3] (before 60% RH), the “weight change before 60% RH (DVS)” value is listed as “minor weight change”.
As for `C[C@H]1CCc2c(ccc(-c3cnn(C4CCNCC4)c3)c2OC2CCC2)N1C(=O)C1CC1.O=C(O)CCC(=O)O` [Form B, (S)-(5-cyclobutoxy-2-methyl-6-(1-(piperidin-4-yl)-1H-pyrazol-4-yl)-3,4-dihydroquinolin-1(2H)-yl)(cyclopropyl)methanone succinate], in data set [3] (succinate), the “solid form after the DVS test” value is “amorphous” and the “hygroscopicity (DVS)” value is reported as “highly hygroscopic; also recorded: high hygroscopicity”.
Consider `C[C@H]1CCc2c(ccc(-c3cnn(C4CCNCC4)c3)c2OC2CCC2)N1C(=O)C1CC1.O=C(O)CCC(=O)O` [Form G and Form O], for which the “Results (solid form after slurry competition, XRPD)” value is given as “Form G” in data set [4] (IPAc, 50° C.); “Form G” in data set [4] (IPAc, RT); “Form G” in data set [4] (MTBE, 50° C.); “Form G” in data set [4] (MTBE, RT).
For the compound `C[C@H]1CCc2c(ccc(-c3cnn(C4CCNCC4)c3)c2OC2CCC2)N1C(=O)C1CC1.O=C(O)CCC(=O)O` [G], the “% Claim (275 nm)” value in data set [5] (25° C./60% RH) is 104% and 106% and 107% and 103%; in data set [5] (40° C./75% RH) it was 106% and 96.3% and 101%; in data set [5] (50° C.), 100% and 101% and 104%; in data set [5] (50° C.*), 98.1%; in data set [5] (Post DVS), 73.5%; in data set [5] (RT), 106% and 103% and 107%. In addition, in data set [5] (initial), the “% Claim (275 nm)” value is listed as 102%. Besides, the “% Purity (275 nm)” value in data set [5] (25° C./60% RH) was 98.84% and 98.86%; in data set [5] (40° C./75% RH), 98.51% and 98.33% and 97.37% and 96.72%; in data set [5] (50° C.), 98.69% and 97.37% and 97.79%; in data set [5] (50° C.*), 94.24%; in data set [5] (Post DVS) it was 98.91%; in data set [5] (RT), 98.85% and 98.88% and 98.82% and 98.86%. Besides, the “% Purity (275 nm)” value in data set [5] (initial) amounted to 98.84%.
With `C[C@H]1CCc2c(ccc(-c3cnn(C4CCNCC4)c3)c2OC2CCC2)N1C(=O)C1CC1.O=C(O)/C=C/C(=O)O` [Fumarate Form C], in data set [3], the “behaviour at high humidity (DVS)” value is on record as “deliquescent” and the “solid form after the DVS test” value is “amorphous or jelly solids”.
On to `C[C@H]1CCc2c(ccc(-c3cnn(C4CCNCC4)c3)c2OC2CCC2)N1C(=O)C1CC1.O=C(O)CCC(=O)O` [Form M, (S)-(5-cyclobutoxy-2-methyl-6-(1-(piperidin-4-yl)-1H-pyrazol-4-yl)-3,4-dihydroquinolin-1(2H)-yl)(cyclopropyl)methanone succinate], for which, in data set [3] (succinate), the “solid form after the DVS test” value was “amorphous” and the “hygroscopicity (DVS)” value was “highly hygroscopic; also recorded: high hygroscopicity”.
`C[C@H]1CCc2c(ccc(-c3cnn(C4CCNCC4)c3)c2OC2CCC2)N1C(=O)C1CC1.O=C(O)CCC(=O)O` [Form I and Form G]: the “Final Form” value was “Form G” in data set [2] (H2O/IPAc (2.8:997.2, aw 0.18), 50° C.); “Form G” in data set [2] (H2O/IPAc (2.8:997.2, aw 0.20), RT); “Form G” in data set [2] (H2O/IPAc (6:994, aw 0.36), 50° C.); “Form G” in data set [2] (H2O/IPAc (6:994, aw 0.40), RT); “Form G” in data set [2] (H2O/IPAc (10:990, aw 0.55), 50° C.); “Form G” in data set [2] (H2O/IPAc (10:990, aw 0.59), RT). For the same compound, the “Final Form” value is listed as “Form G” in data set [2] (IPAc, 50° C.) and “Form G” in data set [2] (IPAc, RT).
On to `C[C@H]1CCc2c(ccc(-c3cnn(C4CCNCC4)c3)c2OC2CCC2)N1C(=O)C1CC1.O=C(O)CCC(=O)O` [Form O, (S)-(5-cyclobutoxy-2-methyl-6-(1-(piperidin-4-yl)-1H-pyrazol-4-yl)-3,4-dihydroquinolin-1(2H)-yl)(cyclopropyl)methanone succinate], for which, in data set [1], the “Observation Initial” value was “Little solid” and the “Observation 2 hrs” value is “Clear”. Moreover, the solubility (commonly the concentration that dissolves in the medium under given conditions) at 2 h in data set [1] (thermodynamic from solid, water, stirring 2 hrs at 800 RPM) is greater than 60 mg/mL. In data set [3] (succinate), the “solid form after the DVS test” value was “amorphous” and the “hygroscopicity (DVS)” value is recorded as “highly hygroscopic; also recorded: high hygroscopicity”.
As to `C[C@H]1CCc2c(ccc(-c3cnn(C4CCNCC4)c3)c2OC2CCC2)N1C(=O)C1CC1.O=C(O)CCCCC(=O)O` [Adipate Form A], in data set [3], the “behaviour at high humidity (DVS)” value is given as “deliquescent” and the “solid form after the DVS test” value is given as “amorphous or jelly solids”.
Consider `C[C@H]1CCc2c(ccc(-c3cnn(C4CCNCC4)c3)c2OC2CCC2)N1C(=O)C1CC1.O=C(O)/C=C/C(=O)O` [Fumarate Form A], for which, in data set [3], the “behaviour at high humidity (DVS)” value is reported as “deliquescent” and the “solid form after the DVS test” value is recorded as “amorphous or jelly solids”.
For `C[C@H]1CCc2c(ccc(-c3cnn(C4CCNCC4)c3)c2OC2CCC2)N1C(=O)C1CC1.O=C(O)/C=C/C(=O)O` [Fumarate Form B] the same measures were “deliquescent” and “amorphous or jelly solids”.
With `C[C@H]1CCc2c(ccc(-c3cnn(C4CCNCC4)c3)c2OC2CCC2)N1C(=O)C1CC1.O=C(O)CCC(=O)O` [A], in data set [5] (25° C./60% RH), the “% Claim (275 nm)” value was 98.3% and 99.8%; the “% Purity (275 nm)” value is 98.64% and 98.78%. Also, in data set [5] (initial), the “% Claim (275 nm)” value is reported as 95.2% and the “% Purity (275 nm)” value was determined as 98.73%.
For the compound `C[C@H]1CCc2c(ccc(-c3cnn(C4CCNCC4)c3)c2OC2CCC2)N1C(=O)C1CC1.O=C(O)CCC(=O)O` [Form B, G and I], the “Results (solid form after slurry turnover, XRPD)” value in data set [6] (IPAc, 50° C.) is reported as “Form G”; in data set [6] (IPAc, RT), “Form G”; in data set [6] (MTBE, 50° C.) it was “Form G”; in data set [6] (MTBE, RT) it was “Form G”.
